Assay results: PubChem BioAssay AID1996
Values after ≈ are worked out from the molar mass of the structure shown.

settings: buffer; pH 7.4; 200.0 µM

Row | Compound | solubility kinetic [µg/mL]
1 | COc1ccc(CC(=O)OCC(=O)NC2CCCCC2)cc1OC | > 50.3
2 | CC(C)CN1C(=O)C(=O)N(CC(=O)c2ccc3c(c2)CCCC3)C1=O | 47.2 (≈ 138 µM)
3 | Cc1c(NC(=O)C(C)Oc2ccc(Br)cc2)c(=O)n(-c2ccccc2)n1C (stereo not given) | > 64.5
4 | COc1ccc(C2(C)CC(C)(C)Nc3ccccc32)cc1 (stereo not given) | 5.7 (≈ 20.3 µM)
5 | CC(=O)C1=NOC2C(=O)N(c3ccccc3)C(=O)C12 (stereo not given) | > 38.7
6 | CCOC(=O)c1sc(-c2cccc(C(F)(F)F)c2)nc1O | 36.5 (≈ 115 µM)
7 | CCOc1ccc2nc(SCC(=O)NCC3CCCO3)sc2c1 (stereo not given) | > 52.9
8 | O=C(COC(=O)/C=C/c1ccc([N+](=O)[O-])cc1)NCc1ccco1 | 1.5 (≈ 4.54 µM)
9 | O=C(Nc1ccncc1)C1CC(=O)N(Cc2ccccc2)C1 (stereo not given) | > 44.3
10 | CCc1cccc(NS(=O)(=O)c2cccc3cccnc23)c1 | 1 (≈ 3.2 µM)
11 | O=C(Nc1ccccc1)c1ccc(-c2ccc(F)cc2)s1 | < 0.6
12 | Cc1cc(C)c(C(=O)Nn2c(C)nc3ccccc3c2=O)cc1C | > 48.2
13 | Cc1nc(CSc2ccc(Cl)cc2)cs1 | 6.9 (≈ 27 µM)
14 | FC(F)Oc1ccc(NC(=S)NCc2cccnc2)cc1 | > 46.4
15 | COc1ccc(C)cc1NC(=O)C(=O)N1CCCC1 | 39.1 (≈ 149 µM)
16 | CC(NC(=O)CN1CCN(c2ccc(Cl)cc2)CC1)c1ccccc1 (stereo not given) | 8.8 (≈ 24.6 µM)
17 | CCOC(=O)C(=CNc1ccc2c(c1)c1ccccc1n2CC)C(=O)OCC | < 0.4
18 | CCOC(=O)Nc1ccc(OC)c([N+](=O)[O-])c1 | > 36
19 | O=C1c2cccc3cccc(c23)C(=O)N1c1ccc(O)cc1 | < 0.6
20 | Cc1nc(-c2ccccn2)nc(N2CCOCC2)c1Cl | > 43.6

Row | Compound | solubility kinetic [µg/mL]
21 | COc1cccc(OCCNC(=O)c2ccc(C)cc2)c1 | 41.9 (≈ 147 µM)
22 | N#Cc1nc(-c2ccc(F)cc2)oc1N1CCCCC1 | 0.9 (≈ 3.32 µM)
23 | CSc1ncc(C(=O)Nc2cccc(Cl)c2C)c(C)n1 | 18.8 (≈ 61.1 µM)
24 | O=C(Nc1cc2c3c(c1)CC(=O)N3CCC2)C1CC1 | > 38.4
25 | CNC(=O)c1ccc(NC(=O)Nc2ccccc2)cc1 | 6.6 (≈ 24.5 µM)
26 | CC1CN(C(=S)Nc2ccc(S(N)(=O)=O)cc2)CC(C)O1 (stereo not given) | > 49.4
27 | CN1CCN(CC(=O)c2ccccc2F)CC1.O=C(O)C(=O)O | 42.9
28 | CCCS(=O)(=O)N1CCCC(C(=O)N2CCCCC2)C1 (stereo not given) | 43 (≈ 142 µM)
29 | COc1ccccc1N1CC(C(=O)Nc2ccc(C)c(S(=O)(=O)N3CCOCC3)c2)CC1=O (stereo not given) | > 71
30 | O=C1/C(=C\c2ccc(O)c(O)c2)SC(=S)N1Cc1ccccc1 | 4 (≈ 11.6 µM)
31 | Cc1cc(C(=O)Cn2cnc3cc(F)ccc3c2=O)c(C)n1C1CC1 | 0.9 (≈ 2.65 µM)
32 | CN(C)CCCNc1nc(-c2ccc(Cl)cc2)nc2ccccc12 | 41.7 (≈ 122 µM)
33 | N#Cc1cc(-c2ccccc2)nc(N2CCNCC2)n1 | > 39.8
34 | Cc1ccc2cc(C)c(SCC(=O)Nc3cc(C)on3)nc2c1 | < 0.2
35 | CCOC(=O)c1sc(-c2ccccn2)nc1C | 23.4 (≈ 94.2 µM)
36 | CCOC(=O)c1oc2nc3c(cc2c1N)CCCC3 | 10.4 (≈ 40 µM)
37 | O=C(Nc1cccc(-c2cn3c(n2)SCC3)c1)c1ccc2c(c1)OCO2 | 18.1 (≈ 49.5 µM)
38 | O=C1CSC(=Nc2ccc(F)cc2)N1 | > 31.5
39 | Cc1ccc(S(=O)(=O)Nc2ccc(S(=O)(=O)Nc3nccs3)cc2)cc1C | > 63.5
40 | CCCOc1ccc(C2=CSC3=NCCN23)cc1Cl | 40.4 (≈ 137 µM)

Row | Compound | solubility kinetic [µg/mL]
41 | O=C(COC(=O)c1cc(Cl)nc(Cl)c1)NC1CCCCCC1 | 5.9 (≈ 17.1 µM)
42 | O=C(Nc1cccnc1)c1ccc(N2CCOCC2)c([N+](=O)[O-])c1 | 41.2 (≈ 125 µM)
43 | C/C(=N\NC(=O)c1cccc([N+](=O)[O-])c1)c1cccnc1 | > 42.6
44 | O=C(NCCCn1ccnc1)c1c(F)cccc1F | 38 (≈ 143 µM)
45 | Nc1nc(SCC(=O)Nc2ccc([N+](=O)[O-])cc2)n[nH]1 | > 44.1
46 | CC1CCCN(C(=O)COC(=O)C2=COCCO2)C1 (stereo not given) | > 40.4
47 | O=C(NC1CCCCCC1)C(Cc1ccccc1)n1cccc1 (stereo not given) | 10.6 (≈ 34.1 µM)
48 | CCCCNC(=S)Nc1ccc2[nH]c(=O)[nH]c2c1 | 18.4 (≈ 69.6 µM)
49 | CCOC(=O)c1sc(=NC(=O)COc2ccccc2)n(C)c1C | 1.4 (≈ 4.19 µM)
50 | O=c1c2oc3ccccc3c2ncn1Cc1cccc(Cl)c1 | < 0.3
51 | Cc1ccc(C)c(S(=O)(=O)NCCC(=O)N2CCCC(C(N)=O)C2)c1 (stereo not given) | > 55.1
52 | CSc1cc(C)c(OCC(=O)Nc2ccc(NC(C)=O)cc2)c(C)c1 | 4.4 (≈ 12.3 µM)
53 | O=C(O/N=C/c1ccc2c(c1)OCO2)c1ccc([N+](=O)[O-])cc1 | 0.9 (≈ 2.86 µM)
54 | Cc1cc(/C=C2\NC(=O)NC2=O)c(C)n1-c1cccnc1 | 40.2 (≈ 142 µM)
55 | COc1ccccc1CNC(=O)CCc1ccccc1 | > 40.4
56 | COc1ccc(NC(=O)CN(C)C(=O)Cc2ccc3c(c2)CCC3)cc1 | 12.2 (≈ 34.6 µM)
57 | Cc1cc(C)c2c(CN3CCC(C)CC3)cc(=O)oc2c1C | 1.1 (≈ 3.67 µM)
58 | CCOc1c(N2CCOCC2)c(=O)c1=O | > 31.7
59 | COc1ccc(CNC(=O)COC(=O)/C=C/c2ccc(Cl)cc2)cc1 | < 0.8
60 | O=C(NCCCc1ccccc1)C1CC1 | > 30.5
